Assay [1] deals with T1, NOX2 (Homo sapiens, UniProt P04839).
T1 sequence (P04839 2-570 limits assumed): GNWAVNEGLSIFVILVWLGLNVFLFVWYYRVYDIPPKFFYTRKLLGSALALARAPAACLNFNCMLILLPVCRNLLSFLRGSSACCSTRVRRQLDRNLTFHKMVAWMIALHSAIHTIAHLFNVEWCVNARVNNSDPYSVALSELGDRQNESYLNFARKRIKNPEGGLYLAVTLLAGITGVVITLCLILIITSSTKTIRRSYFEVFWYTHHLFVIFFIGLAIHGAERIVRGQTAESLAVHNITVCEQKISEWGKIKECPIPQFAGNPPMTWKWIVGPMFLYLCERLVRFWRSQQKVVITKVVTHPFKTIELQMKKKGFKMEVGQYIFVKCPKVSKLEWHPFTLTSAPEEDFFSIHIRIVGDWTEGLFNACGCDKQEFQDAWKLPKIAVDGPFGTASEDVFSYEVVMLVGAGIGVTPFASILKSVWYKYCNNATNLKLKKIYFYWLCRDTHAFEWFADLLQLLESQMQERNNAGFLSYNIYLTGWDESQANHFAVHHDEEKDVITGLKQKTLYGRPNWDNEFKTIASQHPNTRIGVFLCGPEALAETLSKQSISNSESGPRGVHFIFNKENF
T1 sequence (P13498 2-195 partner limits assumed): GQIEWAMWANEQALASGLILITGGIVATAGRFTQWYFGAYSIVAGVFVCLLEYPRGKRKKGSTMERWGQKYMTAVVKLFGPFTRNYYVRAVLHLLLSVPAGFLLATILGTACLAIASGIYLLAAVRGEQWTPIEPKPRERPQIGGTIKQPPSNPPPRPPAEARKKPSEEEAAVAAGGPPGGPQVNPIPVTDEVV
The experiment in a line: Expi293 whole cell assay, NOX2 overexpression. The assay is classed as cell-based. Conditions: Expi293 cells expressing NOX2.
Protocol: Given concerns about previous assays for specific NOX family members [45] we here report the first use of the Expi293 Expression System (Thermo Scientific) to overexpress NOX1, 2, 3, 4, and 5 in excess of any endogenous NOX proteins present in these cells. Transfections were performed following the manufacturer's instructions using the plasmids for each NOX as described in Supplemental Table 2 except that the enhancer solution provided with the Expi293 system was not used because it promoted enzyme activation.
After the times indicated in Supplemental Table 2, cells were washed and 50,000 added per well of a white 96-well plate (Greiner) along with 50 μM Luminol and 2.5 U horseradish peroxidase/mL in a volume of 90 μl for NOX1, NOX2, and NOX5. Inhibitors or vehicle controls were added and cells were incubated for 20 min at 37 °C prior to activation with the indicated stimuli. […] Chemiluminescence was measured every 2 min for 1 s per well at 37 °C in a Varioscan Multimode reader. AUC data were analyzed using GraphPad Prism using non-linear regression analysis after expressing relative to control alone (maximum ROS production).

For assay [2], the target named is T2, NOX2 (Mus musculus, UniProt Q61093).
T2 construct: relative potencies in primary mouse neutrophils enriched from bone marrow; endogenous in cells; host or cells: primary mouse bone-marrow granulocytes
T2 sequence (Q61093 2-570 limits assumed): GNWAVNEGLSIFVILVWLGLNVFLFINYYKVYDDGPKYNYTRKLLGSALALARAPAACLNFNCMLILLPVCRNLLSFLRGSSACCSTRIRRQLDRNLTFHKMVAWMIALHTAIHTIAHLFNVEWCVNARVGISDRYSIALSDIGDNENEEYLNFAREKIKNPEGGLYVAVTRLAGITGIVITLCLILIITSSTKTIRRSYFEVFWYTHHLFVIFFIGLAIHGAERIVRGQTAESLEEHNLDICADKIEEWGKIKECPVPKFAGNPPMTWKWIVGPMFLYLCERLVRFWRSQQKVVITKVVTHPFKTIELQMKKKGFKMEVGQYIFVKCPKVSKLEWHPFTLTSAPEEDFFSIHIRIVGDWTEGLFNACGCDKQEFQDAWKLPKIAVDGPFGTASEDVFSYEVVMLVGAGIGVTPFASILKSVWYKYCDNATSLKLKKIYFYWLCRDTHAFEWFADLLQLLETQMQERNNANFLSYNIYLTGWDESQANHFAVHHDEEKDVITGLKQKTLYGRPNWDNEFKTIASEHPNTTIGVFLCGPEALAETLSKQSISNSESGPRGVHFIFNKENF
T2 sequence (Q61462 2-192 partner limits assumed): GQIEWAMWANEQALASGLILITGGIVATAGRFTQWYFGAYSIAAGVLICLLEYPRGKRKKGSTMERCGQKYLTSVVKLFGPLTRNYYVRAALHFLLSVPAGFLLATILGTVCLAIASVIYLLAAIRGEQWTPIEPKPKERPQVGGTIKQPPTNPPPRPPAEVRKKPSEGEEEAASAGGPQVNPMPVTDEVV
The experiment in a line: NOX2 activity in primary mouse neutrophils enriched from bone marrow. Conditions: SD, n = 8 mice. The assay is classed as cell-based. The method, then:
Human blood was obtained after informed consent by the Department of Transfusion Medicine (NIH Clinical Center) and provided as de-identified specimens. Human granulocytes were isolated using Percoll density fractionation as described and NOX2 activity was assessed in white polypropylene flat bottom 96 well plates following 15 min of preincubation at 37 °C with compounds or vehicle controls using 50 μM luminol as a chemiluminescence enhancer in an assay volume of 100 μl RPMI1640 with 1.1 × 10^5 cells/well in Varioskan Lux luminometer for 30 cycles of 1 s per well (approximately 1 h).
Mouse granulocytes were isolated from bone marrow essentially as described except bones were not sterilized in ethanol and marrow was not flushed through a 100 μm strainer. Furthermore, RPMI1640 was supplemented with 10% FBS, 2 mM EDTA, and 25 mM HEPES buffer and penicillin/streptomycin was omitted. Polymorphonuclear leukocytes (PMN) concentration and purity (>90% granulocytes) were assessed microscopically using 3% acetic acid and a hemacytometer. NOX2 activity was assessed as described above with human granulocytes.

The subject of assay [3] is NOX1 reconstituted with p47phox and p67phox. The experiment in a line: NOX1 reconstituted with cytosolic phox proteins (p47phox and p67phox), data not shown. Type of assay: cell-based. The source says: Another experiment (data not shown) examined the potency of NCATS-SM7270 against NOX1 and NOX3 reconstituted with cytosolic phox proteins (p47phox and p67phox).
In assay [4] the target is T3, Bovine Xanthine Oxidase (Bos taurus, UniProt P80457).
T3 construct: purchased Sigma
T3 sequence (P80457 whole entry): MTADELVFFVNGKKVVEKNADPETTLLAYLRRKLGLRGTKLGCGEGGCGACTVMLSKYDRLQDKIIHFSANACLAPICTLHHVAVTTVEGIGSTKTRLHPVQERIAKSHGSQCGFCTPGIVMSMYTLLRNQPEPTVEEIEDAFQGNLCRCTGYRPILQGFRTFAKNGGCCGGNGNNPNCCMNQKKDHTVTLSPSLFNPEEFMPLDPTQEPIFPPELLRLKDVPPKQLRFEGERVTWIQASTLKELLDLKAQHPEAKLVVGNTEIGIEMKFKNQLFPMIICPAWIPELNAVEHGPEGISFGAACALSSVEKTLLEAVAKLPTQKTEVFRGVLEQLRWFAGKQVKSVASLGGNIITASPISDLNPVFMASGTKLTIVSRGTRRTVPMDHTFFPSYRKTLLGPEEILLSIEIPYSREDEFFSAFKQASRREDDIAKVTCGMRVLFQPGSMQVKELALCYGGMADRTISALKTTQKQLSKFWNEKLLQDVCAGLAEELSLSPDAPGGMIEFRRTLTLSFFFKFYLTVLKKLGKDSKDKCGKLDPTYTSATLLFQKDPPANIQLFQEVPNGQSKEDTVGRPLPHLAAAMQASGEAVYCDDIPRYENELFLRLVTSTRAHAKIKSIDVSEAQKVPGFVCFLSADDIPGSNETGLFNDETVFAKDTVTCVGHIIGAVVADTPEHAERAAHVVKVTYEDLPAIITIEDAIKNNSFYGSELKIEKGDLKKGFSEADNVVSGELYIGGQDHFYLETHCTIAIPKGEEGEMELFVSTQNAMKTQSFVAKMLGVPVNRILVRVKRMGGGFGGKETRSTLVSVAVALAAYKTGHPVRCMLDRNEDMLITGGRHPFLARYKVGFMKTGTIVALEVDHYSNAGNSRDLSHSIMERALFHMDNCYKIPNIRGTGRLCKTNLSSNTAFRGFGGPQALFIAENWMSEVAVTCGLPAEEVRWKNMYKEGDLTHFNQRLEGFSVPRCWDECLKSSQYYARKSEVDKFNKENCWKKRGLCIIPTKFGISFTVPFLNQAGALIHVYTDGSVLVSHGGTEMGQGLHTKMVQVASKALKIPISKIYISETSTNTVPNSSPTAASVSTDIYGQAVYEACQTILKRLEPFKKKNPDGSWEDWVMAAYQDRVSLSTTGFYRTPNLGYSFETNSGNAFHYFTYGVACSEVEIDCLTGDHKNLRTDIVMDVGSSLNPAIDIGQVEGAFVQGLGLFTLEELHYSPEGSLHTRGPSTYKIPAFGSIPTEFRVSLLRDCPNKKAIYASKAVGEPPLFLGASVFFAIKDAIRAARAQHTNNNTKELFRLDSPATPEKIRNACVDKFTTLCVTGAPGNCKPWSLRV
The experiment in a line: Xanthine oxidase / hypoxanthine luminol chemiluminescence assay. Type of assay: biochemical. As to conditions: xanthine oxidase with hypoxanthine; mean ± SD, n in cell; read-out: X/XO IC50. The method, then:
Bovine Xanthine Oxidase (Sigma) was dialyzed in PBS to remove ammonium sulfate and stored at 4 °C. Hypoxanthine was prepared by heating in DMSO. Reactions were prepared by diluting xanthine oxidase in HBSS (final concentration 1.25 mU/mL) that contained 50 μM luminol and were preincubated 5 min with control or inhibitor before the addition of hypoxanthine at a final concentration of 0.5 mM. Luminescence was measured at 24 °C as described above.

Regarding `Cn1ccc(S(=O)(=O)Nc2ccnc3c2c(-c2ccc4ccn(C)c4c2)cn3C2CC2)n1` [NCATS-SM7270, N-(1-cyclopropyl-3-(1-methyl-1H-indol-6-yl)-1H-pyrrolo [2,3-b]pyridin-4-yl)-1-methyl-1H-pyrazole-3-sulfonamide], the “improvement in potency toward NOX2 compared with GSK2795039” value in assay [1] was found to be 2 fold. For the same compound, the IC50 in assay [2] stood at 4.28 ± 1.05 µM; in assay [4], 4.1 ± 5.66 µM. Besides, the “dose needed to observe inhibition of NOX1 versus NOX2” value in assay [3] was about 10 fold.
